# Legend:
# MeCP2-null mice = experiment: NAC and D-NAC therapy in MeCP2-null (RTT) mice: survival, behavior, appearance; assay type: in vivo; details: MeCP2-null pups
# Description: Detailed materials and methods used in the experiments below, including protocols for making the dendrimers-Cy5 and dendrimers-drug conjugates, have been described by Kannan S et al Sci. Transl. Med., 4:130ra46 (2012) and in U.S. Pat. No. 8,889,101.
# RTT mice were the Adrian Bird model available from Jackson Laboratory.
# Weight and behavior were also assessed. Cytokines were measured using standard mice primers for the assessment of inflammatory markers (Kannan S et al Sci. Transl. Med., 4:130ra46 (2012)).
# Conjugation of dendrimer conjugates. The conjugation of dendrimers to Cy5 was done using previously reported methods (Kannan et al., Science Trans. Med (April 2012). For drug experiments, dendrimers were conjugated to N-acetyl-cysteine and administered at doses ranging from 2-20 mg/kg at differing time points.
# The mice were injected with D-drug or PBS every 3-4 days, Statistical analysis. The data was analyzed for the reproducibility using Student's t-test to determine the significance between two groups. A p-value equal to or less than 0.05 was considered significant.
# Animals were videotaped prior to treatment every 3-4 days, and mobility, gait, tremors, paw clenching, paw clenching time, paw wringing, and respiration were all scored on a scale of 0-3, where ‘0’ indicates the worst score and ‘3’ is best or normal. […]
# [1] = system: LPS-induced brain injury in a neonatal rabbit model of cerebral palsy; experiment: LPS-induced brain injury in neonatal rabbit model of cerebral palsy; assay type: in vivo
# Description: The therapeutic efficacy of GA-PAMAM-S-S-NAC dendrimer conjugate was evaluated after two days of animal treatment with lipopolysaccharide (LPS) to induce white matter injury and hypomyelination in the developing rabbit brain (an animal model of Cerebral Palsy).
# microglial cells = experiment: GSH depletion, ROS, NO, H2O2 and nitrite in microglial cells; assay type: cell-based; details: highest concentration (5 mM)
# plasma protein = details: free drug; cited from earlier work
smiles,measurement,setting,value
"CC(=O)N[C@@H](CS)C(=O)O [NAC, N-acetyl cysteine]",Safety / toxicity from survival,MeCP2-null mice; twice weekly therapy,potential toxicity
same,Survival (Kaplan-Meier) compared to non-treated animals,"MeCP2-null mice; twice weekly, 10 mg/kg (NAC basis) from PND21",worse survival than non-treated Rett mice
same,Dose eliciting identical responses,[1]; free NAC vs conjugate,100 mg/kg
same,Fetal inflammation response and motor deficits compared to saline-treated kits,[1]; rabbit kits,decrease in fetal inflammation response with improvement of motor deficits
same,Reduction of H2O2 levels,microglial cells,30-40%
same,Reduction of nitrite levels,microglial cells,30-40%
same,Plasma protein binding,plasma protein,very high plasma protein binding

# — patent publication US20250205369A1, “DENDRIMER COMPOSITIONS AND USE IN TREATMENT OF NEUROLOGICAL AND CNS DISORDERS” (THE JOHNS HOPKINS UNIVERSITY, priority 2014, published 2025)
